# According to US11572379B2, “Monomaleimide-functionalized platinum compounds for cancer therapy” (Medizinische Universität Wien, priority 2015, dated 2023):
# Entries after “also recorded” stand apart in the source; their conditions may differ.
# Assays:
# [1] = test system: CT-26 colon cancer cells; experiment: CT-26 colon cancer in vivo assay for anticancer activity; parameters: species or system Balb/c mice
# Method: CT-26 colon cancer cells (5×10^5 in serum-free medium) were injected subcutaneously into the right flank of Balb/c mice. Animals were treated with the indicated oxaliplatin-releasing drugs at concentrations equimolar to 9 mg/kg oxaliplatin (i.v.; KP2156, KP2299 (compound 12), and KP2541 (compound 22) were dissolved in 0.9% NaCl solution, KP2260 (compound 11) was dissolved in 10% propylene glycol/0.9% NaCl and oxaliplatin was dissolved in 5% glucose solution according to the clinical protocol) twice a week (Mondays and Thursdays). Also in case of KP2552 (mixture of compounds 23 and 24, with the 4-methyl-1,2-cyclohexanediamine moiety) the solvent and application scheme of oxaliplatin was used. In case of cisplatin-releasing prodrugs KP2372 (compound 8) and KP2540 (compound 30), a dose equimolar to 3 mg/kg cisplatin was applied twice a week. For the carboplatin derivative KP2551 (compound 20) a dose equimolar to 12 mg/kg carboplatin was applied. The complexes were dissolved in 0.9% NaCl, while for the platinum(II) drugs 5% glucose solution was used according to the clinical protocol. Animals were controlled for distress development every day and tumor size was assessed regularly by caliper measurement. Tumor volume was calculated using the formula: (length×width^2).
# [2] = Aqueous solubility; conditions: compared to KP2260
# [3] = RP-HPLC stability studies: hydrolytic stability in buffered aqueous solution at different pH values; type: physicochemical; conditions: 0.5 mM, 20° C.; for stability (decrease of the compound peak area): over 24 h; for hydrolysis: 24 hours
# Method: The stability of the compounds of the invention in aqueous solutions at different pH values was evaluated by incubation of compound 12 (KP2299) in different buffers and subsequent monitoring of the decrease of the compound peak area with the UV/VIS detector of a RP-HPLC system at 250 nm. Therefore, compound 12 was dissolved at a concentration of 0.5 mM in either 100 mM phosphate buffer pH=7.4, 100 mM sodium acetate buffer pH=6.3, 100 mM sodium acetate buffer pH=5.3 or 100 mM sodium acetate buffer pH=4.3 and incubated at 20° C. for 24 hours. All the measurements were carried out on an Ultimate 3000 RS system (Thermo Scientific, Waltham, Mass., USA) controlled by Chromeleon 7.2 SR4 software using an Acquity BEH C18 reversed phase column (50×3.0 mm, 1.7 μm particle size) from Waters (Milford, USA). Following conditions were used for the runs: flow rate 0.6 mL/min, sampler temperature: 20° C., column oven temperature 25° C., injection volume 10 μL, gradient 5-95% MeOH (and H2O (+0.1% HCOOH)) in 10 min. The compound was first measured directly after the preparation of the compound (after 2-3 min) and thereafter every 60 min. The decrease of the compound was calculated by the compound peak areas relatively to the peak area directly after the preparation of the compound. […] At pH=6.3 the hydrolysis is below 0.5%/h, whereas at pH=7.4 the hydrolysis is quite fast with ˜2.6%/h (see FIG. 5). Corresponding results can be obtained when the further compounds of the invention are tested.
# [4] = test system: L1210 murine leukemia cells; experiment: L1210 leukemia in vivo assay (survival); conditions: L1210 i.p., male DBA/2J×Balb/c SCID F1 mice
# Method: L1210 murine leukemia cells (1×10^5) were injected intraperitoneally in a volume of 0.2 mL into female DBA/2J (cisplatin-releasing drugs) or male DBA/2J×Balb/c SCID F1 mice (oxaliplatin-releasing drugs). Compounds (see FIG. 4; dissolved as described above) were administered intraperitoneally at drug concentrations equimolar to 3 mg/kg cisplatin and 9 mg/kg oxaliplatin, respectively, on day 1, 5, and 9. Toxicity was monitored by daily observation of animals and registration of their body weight. Therapeutic efficacy of the drug candidate was monitored by recording the lengths of survival of experimental mice compared to untreated control animals.
# [5] = test system: B16 melanoma cells; experiment: B16 melanoma in vivo assay for anticancer activity; conditions: male C57/B6JRj mice, i.v. twice a week, equimolar to 9 mg/kg oxaliplatin
# Method: B16 melanoma cells (1×10^5 in serum-free medium) were injected subcutaneously into the right flank of male C57/B6JRj mice. Animals were treated with KP2299 at concentrations equimolar to 9 mg/kg oxaliplatin (i.v.; dissolved in 0.9% NaCl solution) twice a week. Oxaliplatin was dissolved in 5% glucose solution according to the clinical protocol. Animals were controlled for distress development every day and tumor size was assessed regularly by caliper measurement. Tumor volume was calculated using the formula: (length×width^2).
# [6] = Balb/c mice, i.v. twice a week, equimolar to 9 mg/kg oxaliplatin
# [7] = Balb/c mice, twice a week, dose equimolar to 3 mg/kg cisplatin
# [8] = male Balb/c mice, dose equimolar to 12 mg/kg carboplatin
compound,measurement,setting,value
"(OC-6-44)-Acetato[(1R,2R)-cyclohexane-1,2-diamine]oxalato[4-(2,5-dioxo-2,5-dihydro-1H-pyrrol-1-yl)butanoato]platinum(IV) [KP2541]",anticancer activity against CT-26 tumors (tumor growth),[1]; [6],far less or at least later active
"CC(=O)[O][Pt]([Cl])([Cl])[O]C(=O)NCCCCCN1C(=O)C=CC1=O.N.N [KP2540, (OC-6-44)-Acetatodiamminedichlorido[5-(2,5-dioxo-2,5-dihydro-1H-pyrrol-1-yl)pentylcarbamato]platinum(IV)]",anticancer activity against CT-26 tumors (tumor growth),[1]; [7],only marginally active; also recorded: widely inactive
"(OC-6-34)-Acetato[(1R,2R)-cyclohexane-1,2-diamine]oxalato[2-(2,5-dioxo-2,5-dihydro-1H-pyrrol-1-yl)ethylcarbamato]platinum(IV) [KP2299]",aqueous solubility,[2],highly increased
same,stability (decrease of the compound peak area),"[3]; pH=4.3, 100 mM sodium acetate buffer",stable
same,stability (decrease of the compound peak area),"[3]; pH=5.3, 100 mM sodium acetate buffer",stable
same,hydrolysis,"[3]; pH=6.3, 100 mM sodium acetate buffer",below 0.5 %/h
same,hydrolysis,"[3]; pH=7.4, 100 mM phosphate buffer",~2.6 %/h
same,anti-leukemic activity (survival),"[4]; i.p. day 1, 5, 9, equimolar to 9 mg/kg oxaliplatin",distinct anti-leukemic activity
same,anticancer activity against B16 tumors,[5],exceptionally increased anticancer activity
same,anticancer activity against CT-26 tumors (tumor growth),[1]; [6],distinctly more active than all other tested compounds; also recorded: distinctly higher anticancer activity; also recorded: exceptionally increased anticancer activity
same,complete remission,"[1]; CT-26, female mice, equimolar to 9 mg/kg oxaliplatin i.v. twice a week",3 out of 4
"CC(=O)[O][Pt]1([NH2])([NH2])([O]C(=O)NCCN2C(=O)C=CC2=O)[O]C(=O)C2(CCC2)C(=O)[O]1 [KP2551, (OC-6-34)-Acetatodiamminecyclobutane-1,1-dicarboxylato[2-(2,5-dioxo-2,5-dihydro-1H-pyrrol-1-yl)ethylcarbamato]platinum(IV)]",anticancer activity against CT-26 tumors (tumor growth),[1]; [8],distinctly more active than all other tested compounds; also recorded: very strong anticancer activity
"CC(=O)[O][Pt]([Cl])([Cl])[O]C(=O)NCCN1C(=O)C=CC1=O.N.N [KP2372, (OC-6-44)-Acetatodiamminedichlorido[2-(2,5-dioxo-2,5-dihydro-1H-pyrrol-1-yl)ethylcarbamato]platinum(IV)]",anticancer activity against CT-26 tumors (tumor growth),[1]; [7],only marginally active; also recorded: widely inactive
"(OC-6-34)-[(1R,2R)-Cyclohexane-1,2-diamine]methoxidooxalato[2-(2,5-dioxo-2,5-dihydro-1H-pyrrol-1-yl)ethylcarbamato]platinum(IV) [KP2260]",anticancer activity against CT-26 tumors (tumor growth),[1]; [6],far less or at least later active
"O=C1[O][Pt]2([NH][C@@H]3CCCC[C@H]3[NH]2)[O]C1=O [oxaliplatin, reference compound]",treated animals with life prolongation,"[4]; i.p. day 1, 5, 9, 9 mg/kg oxaliplatin",~50%
"[NH2][Pt]1([NH2])[O]C(=O)C2(CCC2)C(=O)[O]1 [carboplatin, (SP-4-2)-Diamminecyclobutane-1,1-dicarboxylatoplatinum(II), reference compound]",anticancer activity against CT-26 tumors (tumor growth),[1]; [8],no impact
